Assay results taken from paper doi:10.1101/2022.02.09.479090v1 (biorxiv, 2022).
Where two headings read alike, the source gives them in different places.

Assays:
AncFT [1] = test: anaerobic fluorescence titration; set-up: species or system synthetic construct; conditions: 100 mM potassium phosphate pH 7.5, 30 °C
AncFT [2] = test: luminescence progress curves, global numerical fit; assay type: biochemical, synthetic construct; conditions: O2 co-substrate; 100 mM phosphate pH 7.5, 37 °C
RLuc8 [3] = target: T1, RLuc8 (Renilla reniformis, UniProt P27652, A143M/A55T/C124A/K136R/M185V/M253L/S130A/S287L); test: biochemical
RLuc8 [4] = target: T1, RLuc8; test: biochemical; remark: listed apart in the source
AncFT [5] = test: anaerobic fluorescence titration; set-up: species or system synthetic construct; conditions: 100 mM potassium phosphate pH 7.5, 30 °C; remark: listed apart in the source
AncFT [6] = test: luminescence progress curves, global numerical fit; assay type: biochemical, synthetic construct; conditions: competitive versus coelenterazine; 100 mM phosphate pH 7.5, 37 °C
RLuc8 [7] = target: T1, RLuc8; test: biochemical; remark: listed apart in the source
purified protein = substrate: Oc1ccc(Cc2nc3c(Cc4ccccc4)nc(-c4ccc(O)cc4)cn3c2O)cc1; test: purified protein; conditions: O2 co-substrate, 100 mM phosphate pH 7.5, 37 °C

How did the Kd (AncFT [1]) turn out when `Oc1ccc(Cc2nc3c(Cc4ccccc4)nc(-c4ccc(O)cc4)cn3c2O)cc1` [CTZ, 2-(p-hydroxybenzyl)-6-(p-hydroxyphenyl)-8-benzylimidazo [1,2-a]pyrazine-3-(7H)-one] was run?
The Kd was 12 ± 5 µM.

What about the Km (AncFT [2]) of the same molecule?
Its Km is 42 nM.

What about the Kd (RLuc8 [3]) of the same molecule?
The Kd was 37 ± 15 µM.

For `O=C(Cc1ccc(O)cc1)Nc1ncc(-c2ccc(O)cc2)nc1Cc1ccccc1` [CEI, coelenteramide], which Kd (RLuc8 [4]) is on record?
Its Kd is 22 ± 2 µM.

What about the Kd (AncFT [5]) of the same molecule?
The Kd was 16 ± 2 µM.

Which results are given for `O=c1n(Cc2ccc(O)cc2)nc2c(Cc3ccccc3)nc(-c3ccc(O)cc3)cn12` [azaCTZ, 8-Benzyl-2-(4-hydroxybenzyl)-6-(4-hydroxyphenyl)-[1,2,4]triazolo[4,3-a]pyrazin-3(2H)-one]?
Ki (AncFT [6]): 92 ± 2 nM; Ki (RLuc8 [7]): 16.1 µM

B1: RLuc8 (Renilla reniformis; A143M/A55T/C124A/K136R/M185V/M253L/S130A/S287L) (protein)
chain: MTSKVYDPEQRKRMITGPQWWARCKQMNVLDSFINYYDSEKHAENAVIFLHGNATSSYLWRHVVPHIEPVARCIIPDLIGMGKSGKSGNGSYRLLDHYKYLTAWFELLNLPKKIIFVGHDWGAALAFHYAYEHQDRIKAIVHMESVVDVIESWDEWPDIEEDIALIKSEEGEKMVLENNFFVETVLPSKIMRKLEPEEFAAYLEPFKEKGEVRRPTLSWPREIPLVKGGKPDVVQIVRNYNAYLRASDDLPKLFIESDPGFFSNAIVEGAKKFPNTEFVKVKGLHFLQEDAPDEMGKYIKSFVERVLKNEQ
With B1 as the molecule, how does the Km (purified protein) read?
The Km was 1.66 µM.
